Laboratory results published in the supplement of paper PMC10307832.

How the values were obtained:
Experiment in all cases: relative viability (nuclei count vs DMSO), 5 days (fraction); higher = more cells survive
[1] = compound: C1=CC2=NC=CN=C2C=C1/C=C/3\C(=O)NC(=O)S3 + Nc1ncn([C@H]2C[C@H](O)[C@@H](CO)O2)c(=O)n1 [Decitabine] (partner 2 µM)
How it was run: (§1)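 Lung cancer cell lines were pin-tool dosed in 1536-well plates on the day after seeding, with either a lone drug or a fixed anchor-drug dose plus five library-drug doses (not always all listed) in √10 steps. Nuclei were counted on 4× images after 5 days. Relative viability is the ratio of treated-well to vehicle-well nuclei counts, with each value a median of duplicate plates.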

[2] = compound: C1=CC2=NC=CN=C2C=C1/C=C/3\C(=O)NC(=O)S3 + COc1cc2c(Oc3ccc(NC(=O)C4(C(=O)Nc5ccc(F)cc5)CC4)cc3F)ccnc2cc1OCCCN1CCOCC1 [Foretinib] (partner 0.25 µM)
How it was run: as §1

BGJ398 + Navitoclax = compound: CCN1CCN(c2ccc(Nc3cc(N(C)C(=O)Nc4c(Cl)c(OC)cc(OC)c4Cl)ncn3)cc2)CC1 [BGJ398] + CC1(C)CCC(c2ccc(Cl)cc2)=C(CN2CCN(c3ccc(C(=O)NS(=O)(=O)c4ccc(N[C@H](CCN5CCOCC5)CSc5ccccc5)c(S(=O)(=O)C(F)(F)F)c4)cc3)CC2)C1 [Navitoclax] (partner 0.5 µM)
How it was run: as §1

BGJ398 + Decitabine = compound: CCN1CCN(c2ccc(Nc3cc(N(C)C(=O)Nc4c(Cl)c(OC)cc(OC)c4Cl)ncn3)cc2)CC1 [BGJ398] + Nc1ncn([C@H]2C[C@H](O)[C@@H](CO)O2)c(=O)n1 [Decitabine] (partner 2 µM)
How it was run: as §1

Cell Line | relative viability ([1]; first compound 0.02 µM) | relative viability ([1]; first compound 0.06325 µM) | relative viability ([1]; first compound 0.2 µM) | relative viability ([1]; first compound 0.6325 µM) | relative viability ([1]; first compound 2 µM) | relative viability ([2]; first compound 0.02 µM) | relative viability ([2]; first compound 0.06325 µM) | relative viability ([2]; first compound 0.2 µM) | relative viability ([2]; first compound 0.6325 µM) | relative viability ([2]; first compound 2 µM) | relative viability (BGJ398 + Navitoclax; first compound 0.01 µM) | relative viability (BGJ398 + Navitoclax; first compound 0.03162 µM) | relative viability (BGJ398 + Navitoclax; first compound 0.1 µM) | relative viability (BGJ398 + Navitoclax; first compound 0.3162 µM) | relative viability (BGJ398 + Navitoclax; first compound 1 µM) | relative viability (BGJ398 + Decitabine; first compound 0.01 µM) | relative viability (BGJ398 + Decitabine; first compound 0.03162 µM) | relative viability (BGJ398 + Decitabine; first compound 0.1 µM) | relative viability (BGJ398 + Decitabine; first compound 0.3162 µM) | relative viability (BGJ398 + Decitabine; first compound 1 µM)
NCI-H2405 | 0.686 | 0.818 | 0.751 | 0.793 | 0.586 | 1.06 | 1.12 | 1.13 | 1.03 | 0.838 | 0.806 | 0.926 | 0.969 | 0.941 | 0.872 | 0.703 | 0.74 | 0.81 | 0.734 | 0.741
NCI-H3122 | 0.434 | 0.431 | 0.468 | 0.459 | 0.403 | 0.963 | 0.985 | 0.917 | 0.867 | 0.96 | 0.989 | 1.01 | 1.06 | 0.984 | 1.05 | 0.394 | 0.416 | 0.458 | 0.478 | 0.42
PC-3 [JPC-3] | 0.785 | 0.911 | 0.822 | 0.801 | 0.868 | 0.997 | 1.14 | 1.02 | 1 | 1.06 | 0.756 | – | 0.773 | 0.637 | 0.777 | 0.782 | – | 0.777 | – | 0.878
PC-14 | 0.242 | 0.272 | 0.237 | 0.204 | 0.275 | 0.934 | 1.07 | 0.961 | 1.01 | 0.893 | 1.01 | 1.05 | 1.06 | 1.04 | 0.998 | 0.179 | 0.148 | 0.252 | 0.193 | 0.135
RERF-LC-KJ | 0.596 | 0.726 | 0.681 | 0.632 | 0.628 | 0.831 | 0.825 | 0.874 | 0.814 | 0.695 | 0.98 | 1.09 | 0.901 | 1.06 | 0.936 | 0.66 | 0.79 | 0.765 | 0.739 | 0.642
SK-LU-1 | 0.597 | 0.712 | 0.74 | 0.639 | 0.596 | 0.861 | 0.968 | 0.751 | 0.785 | 0.791 | 0.832 | 0.988 | 0.865 | 1.02 | 0.908 | 0.62 | 0.572 | 0.761 | 0.527 | 0.584
SK-MES-1 | 0.353 | 0.403 | 0.437 | 0.357 | 0.331 | 0.875 | 1.05 | 0.976 | 0.804 | 0.669 | 1.27 | 1.32 | 1.24 | 1.33 | 1.24 | 0.377 | 0.345 | 0.41 | 0.349 | 0.321
SW 1573 | 0.506 | 0.65 | 0.603 | 0.544 | 0.367 | 0.893 | 1.22 | 0.911 | 0.804 | 0.487 | 0.82 | 1.22 | 1.05 | 0.981 | 0.91 | 0.501 | 0.557 | 0.478 | 0.498 | 0.466
UMC-11 | 0.695 | 0.665 | 0.681 | 0.531 | 0.69 | 1.03 | 1.03 | 1.09 | 0.964 | 1.11 | 0.343 | 0.336 | 0.314 | 0.382 | 0.307 | 0.504 | 0.571 | 0.637 | 0.652 | 0.365
